{"source": "patent US6518259B1", "about": "“Compositions for treating autoimmune disease” (The Regents of the University of Michigan, priority 1998, dated 2003)", "type_in_all_cases": "cell-based, human", "key": {"[1]": {"test_system": "EBV transformed B cell targets from RA patients", "assay": "Cytolysis of EBV transformed target cells by Vγ9/Vδ2 T cells, 4 hr 51Cr release assay", "procedure": "Fas-mediated cell death in-vivo is thought to be triggered, primarily, by cytotoxic T cells. […] However, susceptibility to cytolysis is markedly different between the two groups when determined using standard 4 hour ^51Cr release assays. FIG. 2C is a bar graph showing the susceptibility to cytolysis by Vγ9/Vδ2 T cell clones determined in EBV transformed lines from 23 normal controls, 18 patients with RA, 6 patients with pauciarticular-onset juvenile arthritis (“pJA”), and 3 patients with autoimmune thyroiditis. Lymphoblastoid target lines from all 23 normal controls tested were efficiently killed by Vγ9/Vδ2 clones, while none of the lines from 18 RA patients were susceptible. […]\nInhibition of Fas-mediated death signaling by SPP was also examined using γδ […]. Cytolysis of EBV transformed target cells by Vγ9/Vδ2 T cells was determined by 4 hr ^51Cr release assay (FIG. 5C) in the presence (●) or absence (∘) of 2.5 μM DMS. At the end of incubation, targets were washed and susceptibility to killing by γδ T cells was assessed.\nAdditionally, pre-incubating RA targets with pertussis toxin reversed their resistance to Fas-mediated and γδ T cell-mediated killing (FIGS. 5D and 5E). […] Cell death was determined using the commercial MTS kit (Promega, Madison, Wis.). […]"}, "[2]": {"test_system": "EBV transformed B cell lines from RA patients", "assay": "Anti-Fas antibody CH-11-induced apoptosis of EBV transformed target cells, TUNEL assay", "settings": "prior incubation of target cells (2.5 μM DMS), 8 hr CH-11 100 ng/ml, serum-free RPMI 1640, FIG. 5B", "procedure": "In some of the examples below, the TUNEL assay was used. TdT-mediated dUTP-biotin nick end-labeling (TUNEL) assay was performed as described [see (Gorczyca, W, et al. Leukemia 7, 659-70 (1993)]. Briefly, cells were fixed in 1% buffered formaldehyde (pH 7.4) for 15 min on ice, washed in phosphate-buffered saline (PBS) and stored at 4° C. in 70% ethanol. Subsequently, cells were resuspended in 50 μl of a solution containing: 5 unites of terminal deoxynucleotidyl transferase (Boehringer Mannheim, Indianapolis, Ind.), 2.5 mM CoCl2,0.2 M potassium cacodylate, 25 mM Tris-HCl, 0.25 mg/ml bovine serum albumin, 0.5 nmoles biotin-16-dUTP (Boehringer Mannheim Biochemicals, Indianapolis, Ind.). […] Green (b-dUTP) and red (DNA) fluorescence of individual cells were measured with an EPICS Elite Flow Cytometer (Coulter, Hialeah. Fla., USA).\nSPP, a potent derivative of sphingosine, has been recently shown to activate a pertussis toxin-sensitive G protein and to inhibit Fas-mediated cell death, Therefore, the ability of SPP to inhibit apoptosis in RA lymphocytes was investigated Apoptosis induced by 8 hr stimulation with the anti-Fas antibody CH-11 (100 ng/ml) was determined in EBV transformed target cells in the presence FIG. 5B, dashed bars) or absence (FIG. 5B, open bars) of 2.5 μM DMS in serum-free RPMI 1640 medium supplemented with insulin and transferrin. […]"}, "[3]": {"test_system": "RA EBV transformed target cells", "assay": "Anti-Fas antibody CH-11-induced apoptosis of RA EBV transformed target cells with MEK1 inhibitor", "settings": "16 hr CH-11 200 ng/ml, FIG. 6", "procedure": "As noted above, it is not intended that the present invention be limited to any one inhibitor. In this example, resistance to Fas-mediated cell killing is shown to be reversed by preincubation of target cells with a MEK1 inhibitor. Apoptosis of RA EBV transformed target cells was induced by 16 hr stimulation with anti-Fas antibody CH-11 (200 ng/ml) in the presence (FIG. 6, black bars) or absence (FIG. 6, open bars) of 100 µM of the MEK1 inhibitor 2-(2′-amino3′-methoxyphenyl-oxanaphthalen-4-one) (PD098059)."}, "[4]": {"test_system": "caspases (CPP32, PARP cleavage)", "assay": "Western blot of CPP32 and PARP cleavage after anti-Fas antibody stimulation, with or without caspase inhibitor", "settings": "preincubated 1 hr with 40 μM, then 100 ng/ml anti-Fas antibody", "procedure": "In some examples below, Western blots were performed. For Western blot analysis, 5×10^6 cells were washed and suspended in 100 μl of lysis buffer [1% sodium dodecyl sulfate (SDS), 1 mM sodium vanadate, 10 mM Tris (pH 7.6)], and boiled for 5 min. After micro-centrifugation at 14,000 rpm, for 10 min, supernatants (cell lysates) were recovered. The protein concentration of the lysates was determined with bicinchoninic acid (BCA) protein assay reagent (Pierce). For CPP32 immunoblots, cell lysates (10-20 μg of protein per lane) were separated on 15% SDS-polyacrylamide gels under reducing conditions, transferred to polyvinylidene difluoride (PVDF) membranes (Millipore), and probed with mouse monoclonal anti-CPP32 (clone #19, IgG2a, from Signal Transduction Labs, Lexington, Ky.) followed by sheep F(ab′)2 fragment horseradish peroxidase-conjugated, anti-mouse Ig (Amersham). For PARP immunoblots, cell lysates (10 μg of protein per lane) were separated on 7.5% SDS-polyacrylamide gels, transferred to PVDF membrane, and probed with monoclonal mouse anti-human PARP antibody C2.10 (IgG1, Enzyme Systems Products Dublin, Calif.). Antibody binding was detected with an ECL detection system (Amersham).\nBriefly, cells were preincubated for 1 hr in the presence or absence of 40 μM of Z-VAD-fmk, and subsequently incubated with 100 ng/ml of the anti-Fas antibody […]. At different time points thereafter, cells were collected, lysed and a Western blot analysis performed with the relevant antibodies."}, "[5]": {"test_system": "EBV transformed B cell lines from RA patients", "assay": "Anti-Fas antibody CH-11-mediated killing of EBV transformed B cell lines, MTS kit", "settings": "preincubation 1 μg/ml for 1 hr, CH-11 100 ng/ml over a time course, FIG. 5D", "procedure": "In this example, the susceptibility of lymphocytes to cell death is examined. As noted above, it is believed that prevention of immune-mediated self injury requires prompt elimination of activated lymphocytes at the end of an immune response. […] Briefly, PHA T cell lymphoblasts from 6 normal controls and 6 RA patients were established by stimulating peripheral blood mononuclear cells with 0.5 μg/ml PHA for 3 days, followed by expansion in 20 U/ml of recombinant human IL-2 (Collaborative Biomedical Products, Bedford, Mass.). Day-10 T cell lymphoblasts were incubated with 125 ng/ml of the agonist anti-Fas monoclonal antibody CH-11 (the antibody was immobilized and 1×10^5 cells per well were used). In all experiments, control mouse monoclonal IgM antibody (TEPC-183, from Sigma) was used in equivalent concentrations. Cell death was determined at different time points, using a commercial MTS kit (Promega, Madison. Wis.). Microplate wells were read by ELISA plate reader at 490 nm.\nAdditionally, pre-incubating RA targets with pertussis toxin reversed their resistance to Fas-mediated and γδ T cell-mediated killing (FIGS. 5D and 5E). […] Cell death was determined using the commercial MTS kit (Promega, Madison, Wis.). […] At the end of incubation, targets were washed and susceptibility to γδ T cell killing was determined using a 4 hr ^51Cr-release assay."}}, "note": "Where a SMILES comes first, the peptide text is derived from it. The star is where a group is joined. Cbz = O=C(OCc1ccccc1)*; CH2F = FC*"}
{"molecule": "CCCCCCCCCCCCCCC[C@H](O)[C@@H](N)CO", "note": "(racemic) [DHS, DL-threo-dihydrosphingosine]", "values": [{"measurement": "resistance of RA targets to apoptosis by γδ T cells", "setting": "[1]; prior incubation of target cells (2.5 μM DMS), 4 hr 51Cr release, FIG. 5C", "value": "effectively reversed"}, {"measurement": "resistance of RA targets to apoptosis by anti-Fas antibodies", "setting": "[2]", "value": "effectively reversed"}]}
{"molecule": "COc1cccc(-c2cc(=O)c3ccccc3o2)c1N", "note": "[PD098059, 2-(2′-amino3′-methoxyphenyl-oxanaphthalen-4-one)]", "values": [{"measurement": "resistance to Fas-mediated cell killing", "setting": "[3]", "value": "reversed"}]}
{"molecule": "COC(=O)C[C@H](NC(=O)[C@H](C)NC(=O)[C@@H](NC(=O)OCc1ccccc1)C(C)C)C(=O)CF", "note": "[Z-VAD-fmk, N-benzyloxycarbonyl-Val-Ala-Asp(O-methyl)-fluromethylketone] (Cbz-Val-Ala-Asp(OMe)-CH2F)", "values": [{"measurement": "subsequent cell death after Fas ligation", "setting": "[4]", "value": "blocks"}, {"measurement": "cleavage of PARP", "setting": "[4]; Western blot, FIG. 4A lower panel", "value": "blocks"}, {"measurement": "proteolytic processing of CPP32", "setting": "[4]; Western blot, FIG. 4A upper panel", "value": "blocks"}]}
{"molecule": "pertussis toxin", "values": [{"measurement": "resistance of RA targets to Fas-mediated killing", "setting": "[5]", "value": "reversed"}, {"measurement": "resistance of RA targets to γδ T cell-mediated killing", "setting": "[1]; preincubation 1 μg/ml for 1 hr, 4 hr 51Cr-release, FIG. 5E", "value": "reversed"}]}
